Data as given in PMC9126943, “ADAMTS4-specific MR probe to assess aortic aneurysms in vivo using synthetic peptide libraries” (Nature Communications, 2022).
Where a SMILES comes first, the peptide text is derived from it. Bridges are numbered along the chain shown (N, C = ends). The star is where a group is joined. DOTA = O=C(O)CN1CCN(CC(=O)O)CCN(CC(=O)*)CCN(CC(=O)O)CC1

Molecular target: T1, ADAMTS4 in the aortic wall of ApoE−/− mice (Mus musculus, UniProt Q8BNJ2)
T1 construct: from tissue
T1 sequence (Q8BNJ2 209-833): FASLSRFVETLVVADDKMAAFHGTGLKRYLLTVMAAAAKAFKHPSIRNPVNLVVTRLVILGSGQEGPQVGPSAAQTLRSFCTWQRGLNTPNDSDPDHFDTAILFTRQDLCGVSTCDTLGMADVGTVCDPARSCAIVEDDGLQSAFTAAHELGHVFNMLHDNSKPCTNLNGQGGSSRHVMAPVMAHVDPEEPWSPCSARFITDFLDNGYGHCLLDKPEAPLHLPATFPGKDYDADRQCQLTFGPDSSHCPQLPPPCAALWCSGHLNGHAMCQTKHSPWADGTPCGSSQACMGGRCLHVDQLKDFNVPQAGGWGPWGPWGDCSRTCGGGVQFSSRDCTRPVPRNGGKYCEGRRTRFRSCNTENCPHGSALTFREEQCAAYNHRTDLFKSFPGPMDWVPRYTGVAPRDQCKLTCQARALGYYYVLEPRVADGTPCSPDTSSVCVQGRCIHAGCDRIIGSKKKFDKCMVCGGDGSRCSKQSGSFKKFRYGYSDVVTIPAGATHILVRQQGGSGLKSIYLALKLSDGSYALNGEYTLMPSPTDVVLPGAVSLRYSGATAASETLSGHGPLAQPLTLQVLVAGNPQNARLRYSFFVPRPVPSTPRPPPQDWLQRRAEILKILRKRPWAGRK
Experiment: LA-ICP-MS spatial localization of Gd in the aortic wall
Type: in vivo
Settings: 10 µm cryosections, n = 3 per time point
Description: Aortic tissues were cut into 10 µm cryosections at −20 °C and mounted on SuperFrost Plus adhesion slides (Thermo Scientific, Waltham, MA, USA). Laser ablation inductively coupled plasma mass spectrometry (LA-ICP-MS) analysis was performed on a commercial LA system (NWR-213, ESI, Bozeman, MT, USA) equipped with a two-volume sample chamber coupled to a sector field ICP-MS (Element XR, Thermo Fisher Scientific, Bremen, Germany) (Supplementary Table 6).
Helium was used as the carrier gas, and argon was added before reaching the torch using a Y-piece (Supplementary Table 7). The ICP-MS was tuned for maximum ion intensity and good signal stability (RSD < 5%), keeping the oxide ratio (ThO/Th) below 1% during the continuous ablation of a microscopic glass slide. Matrix-matched agarose gel standards cast on glass slides were used for drift control and calibration. These standards contain Gd concentrations between 26.6 pg mm^−2 and 600.1 pg mm^−2. Averaged intensities of six line-scans per standard were used for calibration. Data visualization was done in Origin 2022 (OriginLab Corporation, Northampton, MA).

N=C(N)NCCC[C@@H]1NC(=O)[C@H](CCCNC(=N)N)NC(=O)[C@H](CO)NC(=O)[C@@H](N)CSSC[C@@H](C(=O)N[C@@H](CO)C(=O)NCC(=O)NCC(=O)N[C@@H](CO)C(=O)NCC(=O)NCC(=O)N[C@@H](CCCCNC(=O)CN2CCN(CC(=O)O)CCN(CC(=O)O)CCN(CC(=O)O)CC2)C(=O)NCC(N)=O)NC(=O)CNC1=O (Gd complex, metal not drawn) [ADAMTS4-specific probe] (H-CSRRGCSGGSGGK(DOTA)G-NH2; disulfide 1-6)
colocalization of gadolinium with areas positive for ADAMTS4: strong colocalization
